Reference: article PMC4750701, “Role of Mitochondrial RNA Polymerase in the Toxicity of Nucleotide Inhibitors of Hepatitis C Virus” (Antimicrobial Agents and Chemotherapy, 2016)

Key:
[1] = target: T1, Recombinant human DNA polymerase beta (Homo sapiens, UniProt P06746); test: Inhibition of human DNA polymerase beta; format: biochemical; details: triphosphate form of the compound tested; read-out: Mean IC50 ± SD for DNA Pol β
T1 construct: host or cells: E. coli
Description: (§1) Activated fish sperm DNA was purchased from USB/Affymetrix (Santa Clara, CA) and used as a template for the DNA polymerases alpha, beta, and gamma. The DNA template used in the RNA Pol II assay was a 1,188-bp restriction fragment containing the cytomegalovirus (CMV) immediate early promoter (Promega, Madison, WI). The RNA and DNA oligonucleotides used in the mitochondrial RNA polymerase assay (see Table S1 in the supplemental material) were synthesized and PAGE purified by Thermo Scientific/Dharmacon (Lafayette, CO). RNA primer R12 was 5′-^32P-phosphorylated with [γ-^32P]ATP (3,000 Ci/mmol) and T4 kinase (New England BioLabs, Ipswich, MA).
(§2) Human DNA polymerase alpha, isolated from HeLa cell extracts, was from CHIMERx (Madison, WI). Recombinant human DNA polymerase beta, expressed in E. coli, was a gift from Zucai Suo at The Ohio State University. Recombinant human DNA polymerase gamma (including both the large subunit and the small subunit) was cloned, expressed, and purified from insect cells by Gilead Sciences (Foster City, CA) ([13]). RNA PolII was purchased as part of the HeLaScribe nuclear extract in vitro transcription system kit from Promega (Madison, WI). The recombinant human PolRMT and the transcription factors mitochondrial transcription factor A (mtTFA) and B2 (mtTFB2) were purchased from Enzymax (Lexington, KY). FLAG epitope-tagged RNA PolI and PolIII complexes were isolated from rat NSN1 cells and HeLa cells, respectively ([17], [18]). The inhibition of DNA polymerases alpha, beta, and gamma, PolRMT, and PolII and the rate of single-nucleotide incorporation by PolRMT have been described previously in detail ([12], [13], [19]). Inhibition of RNA PolI and PolIII was studied using published methods ([20], [21]). All concentrations were final unless noted otherwise. For the RNA PolI inhibition assay, a reaction mixture containing 50 mM HEPES (pH 7.9), 20% glycerol, 100 mM KCl, 1 mM dithiothreitol (DTT), 50 μg/ml calf thymus DNA, 4 mM MgCl2, 5 or 80 μM UTP (0.25 μl of [5,6-^3H]UTP, >25 Ci/mmol; PerkinElmer), 1 mM noncompeting NTP, competing NTP (5 μM for GTP, CTP, and UTP and 25 μM for ATP), and various concentrations (0 to 500 μM) of NTP analogs was preincubated at 30°C for 5 min. […] After incubation at 30°C for 20 min to 1 h, the reactions were terminated by pipetting the mixtures onto DEAE-cellulose discs (DE81; Whatman), and the products analyzed as described previously ([20], [21]).

[2] = target: T2, Recombinant human DNA polymerase gamma (Homo sapiens, UniProt P54098); test: Inhibition of human DNA polymerase gamma; format: biochemical; details: triphosphate form of the compound tested; read-out: Mean IC50 ± SD for DNA Pol γ
T2 construct: made in house; host or cells: insect cells
T2 sequence (P54098 1-1239): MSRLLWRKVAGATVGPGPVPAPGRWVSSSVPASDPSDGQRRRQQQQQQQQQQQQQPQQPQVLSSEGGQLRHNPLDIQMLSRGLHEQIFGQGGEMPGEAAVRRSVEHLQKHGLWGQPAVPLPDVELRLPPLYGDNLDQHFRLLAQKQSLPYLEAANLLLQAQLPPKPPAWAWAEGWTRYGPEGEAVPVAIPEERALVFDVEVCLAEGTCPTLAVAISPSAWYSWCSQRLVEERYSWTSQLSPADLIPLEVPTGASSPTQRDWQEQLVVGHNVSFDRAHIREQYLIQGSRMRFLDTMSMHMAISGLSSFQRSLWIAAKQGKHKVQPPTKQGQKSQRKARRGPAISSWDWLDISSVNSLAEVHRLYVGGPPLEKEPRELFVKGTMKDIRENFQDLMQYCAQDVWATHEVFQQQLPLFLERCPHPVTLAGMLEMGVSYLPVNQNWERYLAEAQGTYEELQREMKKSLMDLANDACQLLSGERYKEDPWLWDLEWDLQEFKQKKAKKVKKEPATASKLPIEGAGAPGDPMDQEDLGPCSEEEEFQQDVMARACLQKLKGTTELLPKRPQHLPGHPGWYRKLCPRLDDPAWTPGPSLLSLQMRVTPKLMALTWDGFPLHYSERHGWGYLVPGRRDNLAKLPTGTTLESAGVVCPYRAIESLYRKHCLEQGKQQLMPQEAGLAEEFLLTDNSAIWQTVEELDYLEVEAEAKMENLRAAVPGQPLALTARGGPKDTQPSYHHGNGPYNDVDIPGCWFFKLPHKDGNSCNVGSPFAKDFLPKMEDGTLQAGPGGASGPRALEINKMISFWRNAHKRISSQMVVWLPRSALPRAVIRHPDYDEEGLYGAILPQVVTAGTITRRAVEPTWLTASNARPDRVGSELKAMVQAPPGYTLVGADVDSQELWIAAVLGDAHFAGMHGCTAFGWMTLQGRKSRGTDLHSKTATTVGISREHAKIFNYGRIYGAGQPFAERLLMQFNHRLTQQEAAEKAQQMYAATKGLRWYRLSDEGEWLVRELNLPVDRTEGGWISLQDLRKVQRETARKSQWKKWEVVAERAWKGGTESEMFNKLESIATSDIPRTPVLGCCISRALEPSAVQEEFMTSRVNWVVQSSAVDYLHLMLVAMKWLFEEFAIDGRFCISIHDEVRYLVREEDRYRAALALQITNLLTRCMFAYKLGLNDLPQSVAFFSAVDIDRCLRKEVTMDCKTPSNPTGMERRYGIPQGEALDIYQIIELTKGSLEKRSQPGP
T2 sequence (Q9UHN1 26-485 partner limits assumed): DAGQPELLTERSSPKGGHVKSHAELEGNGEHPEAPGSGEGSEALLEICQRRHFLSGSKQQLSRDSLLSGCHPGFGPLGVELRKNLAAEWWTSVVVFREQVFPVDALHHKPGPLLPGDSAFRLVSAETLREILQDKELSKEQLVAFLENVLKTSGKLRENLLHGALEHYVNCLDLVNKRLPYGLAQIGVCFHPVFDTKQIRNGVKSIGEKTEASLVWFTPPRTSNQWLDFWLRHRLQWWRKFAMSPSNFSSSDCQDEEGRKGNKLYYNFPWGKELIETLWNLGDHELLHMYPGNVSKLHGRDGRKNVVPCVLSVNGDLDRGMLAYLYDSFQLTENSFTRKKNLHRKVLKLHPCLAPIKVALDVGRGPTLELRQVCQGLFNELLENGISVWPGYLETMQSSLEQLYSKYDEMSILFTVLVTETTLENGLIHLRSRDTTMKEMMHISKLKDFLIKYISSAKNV
Description: as §1, §2

| SMILES | IC50 [1] [µM] | IC50 [2] [µM] |
| --- | --- | --- |
| C[C@@]1(O)[C@H](O)[C@@H](CO)O[C@H]1n1ccc(N)nc1=O [2′CMeC, 2′-C-methyl (2′CMe) cytidine] | > 200 | > 200 |
| C[C@@]1(O)[C@H](O)[C@@H](COP(=O)(O)OP(=O)(O)OP(=O)(O)O)O[C@H]1n1cnc2c(=O)[nH]c(N)nc21 [2′CMeGTP] | > 200 | > 200 |
| [N-]=[N+]=N[C@]1(CO)O[C@@H](n2ccc(N)nc2=O)[C@H](O)[C@@H]1O [4′-AzidoC, 4′-azido cytidine] | > 200 | > 200 |
| CC(C)OC(=O)[C@H](C)N[P@](=O)(OC[C@H]1O[C@@](C#N)(c2ccc3c(N)ncnn23)[C@](C)(O)[C@@H]1OC(=O)C(C)C)Oc1ccccc1 [GS-6620] | > 200 | > 200 |
| CCOc1nc(N)nc2c1ncn2[C@@H]1O[C@@H]2COP(=O)(OC(C)C)O[C@H]2[C@@]1(C)F (some centres unmarked) [PSI-938] | > 200 | > 200 |
| C[C@@]1(F)[C@H](O)[C@@H](CO)O[C@H]1n1ccc(N)nc1=O [PSI-6130] | > 200 | > 200 |
| CC(C)OC(=O)[C@H](C)N[P@](=O)(OC[C@H]1O[C@@H](n2ccc(=O)[nH]c2=O)[C@](C)(F)[C@@H]1O)Oc1ccccc1 [Sofosbuvir] | > 200 | > 200 |
